ChEMBL document CHEMBL1131518, “Methionine analogues as inhibitors of methionyl-tRNA synthetase” (1998)
Converted amounts (≈) assume the structure as drawn. Values belong to the molecule of their own block, whether it stands above or below them.

Columns and labels:
[1] = target: Methionine--tRNA ligase (Escherichia coli K-12) (UniProt P00959); assay: Ability to inhibit Escherichia coli methionyl-tRNA synthetase was determined at a concentration of 270 uM
[2] = system: Citrobacter freundii; assay: Antimicrobial activity against Citrobacter freundii 8090 was determined; format: functional
[3] = system: Pseudomonas aeruginosa; assay: Antimicrobial activity against Pseudomonas aeruginosa 1912E was determined; format: functional
[4] = system: Salmonella typhimurium; assay: Antimicrobial activity against Salmonella Typhimurium 14028 was determined; format: functional, Salmonella enterica subsp. enterica serovar Typhimurium; details: Salmonella enterica
[5] = system: Staphylococcus aureus; assay: Antimicrobial activity against Staphylococcus aureus 1538p was determined; format: functional
[6] = system: Serratia marcescens; assay: Antimicrobial activity against Serratia marcescens 1826E was determined; format: functional
[7] = system: Escherichia coli; assay: Antimicrobial activity against Escherichia coli JM109 was determined; format: functional
[8] = system: Klebsiella pneumoniae; assay: Antimicrobial activity against Klebsiella pneumoniae 2011E was determined; format: functional
[9] = system: Proteus vulgaris; assay: Antimicrobial activity against Proteus vulgaris 6059 was determined; format: functional
[10] = system: Enterococcus faecalis; assay: Antimicrobial activity against Enterococcus faecalis 29212 was determined; format: functional
[11] = system: Bacillus subtilis; assay: Antimicrobial activity against Bacillus subtilis ATCC 6633 was determined; format: functional

Chain of Methionine--tRNA ligase (Escherichia coli K-12) (P00959 2-677 limits assumed): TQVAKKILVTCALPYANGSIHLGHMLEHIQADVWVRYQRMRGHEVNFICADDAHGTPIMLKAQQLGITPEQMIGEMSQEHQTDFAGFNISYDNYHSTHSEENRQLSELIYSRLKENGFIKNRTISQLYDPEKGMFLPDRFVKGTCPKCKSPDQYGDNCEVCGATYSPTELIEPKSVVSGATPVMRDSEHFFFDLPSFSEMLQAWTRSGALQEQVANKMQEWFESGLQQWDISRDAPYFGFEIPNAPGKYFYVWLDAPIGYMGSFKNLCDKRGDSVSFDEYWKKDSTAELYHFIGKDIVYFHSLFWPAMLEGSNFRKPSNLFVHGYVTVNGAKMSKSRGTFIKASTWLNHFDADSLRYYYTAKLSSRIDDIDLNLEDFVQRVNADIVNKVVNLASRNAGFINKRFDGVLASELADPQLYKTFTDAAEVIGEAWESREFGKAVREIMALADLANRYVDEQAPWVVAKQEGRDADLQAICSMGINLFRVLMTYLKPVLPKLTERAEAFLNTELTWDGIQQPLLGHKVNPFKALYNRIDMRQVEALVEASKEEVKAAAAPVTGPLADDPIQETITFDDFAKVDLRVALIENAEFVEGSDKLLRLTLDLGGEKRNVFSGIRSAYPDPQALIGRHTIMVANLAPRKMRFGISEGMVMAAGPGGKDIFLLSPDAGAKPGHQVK

SMILES: COC(=O)CC(=O)CCSC
- inhibition [1]: 0.4%

SMILES: CSCCCO
- inhibition [1]: 0%

SMILES: CSCCc1nn[nH]n1
- inhibition [1]: 16.2%

SMILES: CSCC[C@H](N)C(=O)Nc1ccc([N+](=O)[O-])cc1
- inhibition [1]: 33.5%

SMILES: CSCCC#N
- inhibition [1]: 7.8%

SMILES: CSCCN1C(=O)c2ccccc2S1(=O)=O
- inhibition [1]: 16.3%

SMILES: CSCC[C@H](NC(=O)OC(C)(C)C)C(=O)O
- inhibition [1]: 11.3%

SMILES: CSCCc1n[nH]cc1C(=O)O
- inhibition [1]: 8.3%

SMILES: CSCCC(N)C(=O)Nc1ccc2ccccc2c1 (stereo not drawn)
- inhibition [1]: 22.3%

SMILES: CSCCCCO
- inhibition [1]: 0%

SMILES: CCOC(=O)c1c[nH]nc1CCSC
- inhibition [1]: 0%

SMILES: CSCC[C@H](N)C(=O)C(C)C
- inhibition [1]: 0%

SMILES: CSCCC=O
- inhibition [1]: 4.7%

SMILES: CSCCO
- inhibition [1]: 3.2%

SMILES: CSCCC(=O)O
- inhibition [1]: 5.9%

SMILES: COC(=O)CCSC
- inhibition [1]: 3.8%

SMILES: CSCCc1cc(O)[nH]n1
- inhibition [1]: 1.8%

SMILES: CSCC[C@H](N)C(=O)Nc1cccc([N+](=O)[O-])c1
- inhibition [1]: 0%

SMILES: CSCCC(=O)Cl
- inhibition [1]: 14%

SMILES: CSCC[C@H](NC(=O)OC(C)(C)C)C(=O)NOC(=O)OC(C)(C)C
- inhibition [1]: 0%

Results, then the molecule that gave them:

- inhibition [1]: 11.4%
SMILES: CSCC[C@H](NC(=O)OC(C)(C)C)C(=O)NO

- inhibition [1]: 0%
SMILES: CS(=O)(=O)CC[C@H](N)C(=O)NO

- inhibition [1]: 56.2%
SMILES: CSCC[C@H](N)C(=O)NOC(C)(C)C

- MIC [2]: 8 µg/mL
- MIC [3]: > 128 µg/mL
- MIC [4]: > 128 µg/mL
- MIC [5]: > 128 µg/mL
- MIC [6]: > 128 µg/mL
- MIC [7]: 1 µg/mL
- inhibition [1]: 81.5%
- MIC [8]: > 128 µg/mL
- MIC [9]: 2 µg/mL
- MIC [10]: > 128 µg/mL
- MIC [11]: > 128 µg/mL
SMILES: CSCC[C@H](N)C(=O)NO.O=C(O)C(F)(F)F

- inhibition [1]: 17.8%
SMILES: CSCC[C@H](N)C(N)=O

- inhibition [1]: 8.5%
SMILES: C[S+]([O-])CC[C@H](N)C(=O)NO (stereo partly drawn)

- MIC [2]: 8 µg/mL (≈ 48.7 µM)
- MIC [3]: > 128 µg/mL
- MIC [4]: > 128 µg/mL
- MIC [5]: > 128 µg/mL
- MIC [6]: > 128 µg/mL
- MIC [7]: 2 µg/mL (≈ 12.2 µM)
- MIC [8]: > 128 µg/mL
- MIC [9]: 4 µg/mL (≈ 24.4 µM)
- MIC [10]: > 128 µg/mL
- MIC [11]: > 128 µg/mL
SMILES: CSCCC(N)C(=O)NO (stereo not drawn)

- MIC [2]: > 128 µg/mL
- MIC [3]: > 128 µg/mL
- MIC [4]: > 128 µg/mL
- MIC [5]: > 128 µg/mL
- MIC [6]: > 128 µg/mL
- MIC [7]: > 128 µg/mL
- MIC [8]: > 128 µg/mL
- MIC [9]: > 128 µg/mL
- MIC [10]: > 128 µg/mL
- MIC [11]: > 128 µg/mL
SMILES: CSCCC(N)C(=O)NO.O=C(O)C(F)(F)F (stereo not drawn)

- inhibition [1]: 23.1%
SMILES: CSCC[C@H](N)C(=O)NCO

- inhibition [1]: 20.4%
SMILES: COC(=O)[C@@H](N)CCSC
